Results on 2 molecules are retold here after patent publication US4985447A, “Certain benzoquinones, naphthoquinones and derivatives thereof which exhibit thromboxane A2 synthetase inhibition or receptor antagonism and the like” (Takeda Chemical Industries, Ltd., priority 1986, dated 1991).

The target of assay [1] is T1, Thromboxane A2 (TXA2) synthetase (Equus caballus, UniProt A0A9L0T8T9).
T1 sequence (A0A9L0T8T9 2-534): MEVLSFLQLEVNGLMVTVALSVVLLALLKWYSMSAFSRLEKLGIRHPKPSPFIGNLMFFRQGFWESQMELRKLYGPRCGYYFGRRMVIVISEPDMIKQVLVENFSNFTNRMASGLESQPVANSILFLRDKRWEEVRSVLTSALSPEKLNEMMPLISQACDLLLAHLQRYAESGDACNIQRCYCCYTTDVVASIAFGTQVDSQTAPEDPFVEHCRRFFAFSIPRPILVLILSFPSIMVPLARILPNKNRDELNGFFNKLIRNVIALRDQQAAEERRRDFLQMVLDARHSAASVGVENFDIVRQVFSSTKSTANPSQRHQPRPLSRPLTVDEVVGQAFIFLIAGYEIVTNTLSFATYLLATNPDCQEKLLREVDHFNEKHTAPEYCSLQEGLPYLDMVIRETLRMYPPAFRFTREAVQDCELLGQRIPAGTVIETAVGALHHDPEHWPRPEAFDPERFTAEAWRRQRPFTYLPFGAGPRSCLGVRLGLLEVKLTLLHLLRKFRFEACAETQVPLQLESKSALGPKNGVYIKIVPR
The assay is described as follows: Inhibition of Thromboxane A2 (TXA2) synthetase (horse platelet microsome). The format is biochemical. As to conditions: read-out: Inhibition of Thromboxane A2 (TXA2) synthetase; for inhibition at 1 µM: 10^-6 M; for inhibition at 0.1 µM: 10^-7 M. The protocol:
Inhibition of Thromboxane A2 (TXA2) synthetase
(§1) As a preparation of TXA2 synthetase, horse platelet microsome treated with indomethacin (indomethacin-treated horse platelet microsome: IPM) according to the method of Needleman et al. (Science 193 163, 1979) was used. To 60 μl of the solution of IPM in 50 mM Tris buffer(pH 7.5) (containing 140 μg on the protein basis), 60μof a solution containing a drug at a variable concentration was added and kept still at room temperature for 5 minutes. One hundred μl of this mixture was taken, to which 20 μl of a buffer containing 30 ng cf prostaglandin H2 (PGH2) with ice-cooling and kept still at 0° C. for 5 minutes to produce thromboxane A2 (TXA2). The reaction was stopped by addition of 500 μl of Tris buffer, and 50 μl of the resultant solution was subjected to radioimmunoassay of thromboxane B2 (TXB2), a stable metabolite of TXA2 [Shibouta et al. Biochem. Pharmacol. 28 3601, 1979]. The rate of inhibition (%) of TXA2 synthetase was determined from the difference in TXB2 productivity between the untreated group and the treated group.
as §1, with “60 μl of” for “60μof”, “of” for “cf”

The next assay addresses T2, 5-lipoxygenase (Rattus norvegicus, UniProt P12527).
T2 construct: endogenous in cells; host or cells: RBL-1 cells (rat basophilic leukemia)
T2 sequence (P12527 1-673): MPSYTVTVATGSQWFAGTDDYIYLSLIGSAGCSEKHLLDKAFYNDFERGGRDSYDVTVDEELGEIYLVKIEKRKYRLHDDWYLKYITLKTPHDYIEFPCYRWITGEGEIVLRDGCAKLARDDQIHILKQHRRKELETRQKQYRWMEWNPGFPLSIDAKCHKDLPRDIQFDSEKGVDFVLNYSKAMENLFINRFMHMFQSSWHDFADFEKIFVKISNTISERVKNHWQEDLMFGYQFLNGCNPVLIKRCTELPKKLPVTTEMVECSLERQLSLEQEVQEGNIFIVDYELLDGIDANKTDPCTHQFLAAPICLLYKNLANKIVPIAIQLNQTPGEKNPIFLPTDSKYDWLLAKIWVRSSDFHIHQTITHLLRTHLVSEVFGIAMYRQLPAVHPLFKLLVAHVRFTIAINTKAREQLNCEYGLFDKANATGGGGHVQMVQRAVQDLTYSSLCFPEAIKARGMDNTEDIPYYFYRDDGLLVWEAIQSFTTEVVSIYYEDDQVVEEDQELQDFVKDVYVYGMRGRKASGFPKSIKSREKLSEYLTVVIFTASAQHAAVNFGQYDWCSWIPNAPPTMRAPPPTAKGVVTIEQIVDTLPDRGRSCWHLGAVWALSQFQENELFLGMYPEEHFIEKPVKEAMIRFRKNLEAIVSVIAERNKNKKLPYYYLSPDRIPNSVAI
Description: Inhibition of 5-lipoxygenase (production of 5-HETE in RBL-1 cells). As to conditions: for inhibition at 1 µM: 10^-6 M; for inhibition at 0.1 µM: 10^-7 M. In kind it is cell-based, rat (RBL-1, rat basophilic leukemia cells). As to the method: Inhibition of 5-lipoxygenase
10^7 RBL-1 cells (rat basophilic leukemia cells) were suspended in 0.5 ml of MCM (mast cell medium ). To the suspension was subsequently added a solution consisting of 0.5 ml of MCM, 50 μg of arachidonic acid, 10 μg of A-23187 (calcium ionophore, Eli Lilly), and a solution of a quinone compound in ethanol at the final concentration of 1 μM, 0.1 μM, 0.01 μM or 0.001 μM of the test compound was added and allowed to react at 37° C. for 20 minutes. After the reaction, 4 ml of ethanol containing 1,4-dimethoxy-2-methyl-3-(3-methoxypropyl)naphthalene as an internal standard were added, mixed well by shaking, and kept at room temperature for 10 minutes. Then the mixture was centrifuged for 10 minutes (2000 rpm), and the supernatant was separated. The supernatant was concentrated to dryness under reduced pressure. To the concentrate, 0.5 ml of 60% aqueous methanol was added. One hundred μl of this solution was subjected to high performance liquid chromatography for quantitative analysis of 5-HETE (5-hydroxyeicosatetraenoic acid). The amount of 5-HETE was analyzed by measurement of the absorbance at […] with a UV absorption monitor.
Inhibitory effect (IE) of production of 5-HETE is expressed by (1-b/a)×100, wherein a is the peak height or the area corrected with the peak due to the internal standard in the absence of the quinone compound, and b is the peak hight or peak area corrected with the peak due to the internal standard in the presence of the quinone compound.

A word on the inhibition: it is the change of the read-out against control, counted positive when it falls. Consider `CC1=C(C)C(=O)C(C(C)c2cccnc2)=C(C)C1=O` (centres unmarked) [Compound No. 1, 3,5,6-trimethyl-2-[1-(3-pyridyl)ethyl]-1,4-benzoquinone], for which, in assay [1], the inhibition at 1 µM was 76% and the inhibition at 0.1 µM came out at 37%. In addition, on 5-lipoxygenase, the inhibition at 1 µM was determined as 84% and at 0.1 µM the inhibition was 46%.

For the molecule `CC1=C(C)C(=O)C(C(CCCCCC(=O)O)c2cccnc2)=C(C)C1=O` (centres unmarked) [Compound No. 13, 7-(3-pyridyl)-7-(3,5,6-trimethyl-1,4-benzoquinon-2-yl)heptanoic acid], in assay [1], the inhibition at 1 µM came to 87% and the inhibition at 0.1 µM was found to be 48%. Further, at 5-lipoxygenase, the inhibition at 1 µM stood at 64% and the inhibition at 0.1 µM came to 16%.
